The target of assay [1] is PI3Kα (p110/p85) kinase (wild type, "WT") (Homo sapiens, UniProt P42336). Nature of the assay: PI3Kα (p110/p85) kinase ADP-Glo Assay. The following applies: 25 uM ATP. The class given is biochemical. In outline:
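Wild-type PI3Kα p110/p85 preincubated 30 min at RT with PI(4,5)P2:PS substrate ([…]) and compound ([…]) in HEPES pH7.5 buffer with MgCl2, DTT and BSA; reaction started with 25 µM ATP for 120 min at RT. ADP measured by ADP-Glo luminescence; IC50 from four-parameter logistic fit.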
A general note: ADP-Glo turns the ADP formed in a reaction into a luminescent signal.

The target of assay [2] is PI3Kα (p110[H1047R]/p85) kinase (Homo sapiens, UniProt P42336, H1047R). Nature of the assay: PI3Kα (p110[H1047R]/p85) kinase ADP-Glo Assay. The class given is biochemical. The following applies: 25 uM ATP; for selectivity: WT/H1047R: ADP-Glo Assay IC50 ratio. The essentials: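 PI3Kα H1047R/p85 pre-incubated 30 min at room temperature with PI(4,5)P2:PS substrate ([…]) and compound ([…]) in HEPES pH 7.5 buffer with MgCl2; ATP ([…]) then added for 120 min. ADP quantified by ADP-Glo luminescence; IC50 from four-parameter logistic fit.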

The subject of assay [3] is PI3Kα H1047R mutated cell line T-47D cells. The assay can be described thus: Cell Proliferation Assay (CellTiter-Glo), T-47D. The assay is classed as cell-based. The conditions noted are these: for pIC50: Homo sapiens, T47D, 72 h, T-47D, 3 days treatment; for Selectivity: SK-BR-3/T-47D (cell proliferation): cell proliferation IC50 ratio. The essentials: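 T-47D cells seeded overnight at 3×10^3/well, then exposed 3 days to 9-point 1:3 dilutions, final […] to 1 nM in 0.1% DMSO. CellTiter-Glo luminescence; relative IC50 from percent inhibition versus medium-only and 0.1% DMSO controls, 4-parameter logistic fit.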
(ATP-based viability assays read luminescence as a measure of living cells.)

Molecules are shown by their SMILES. pIC50: −log10 of the molar value.

Chain of PI3Kα (p110[H1047R]/p85) kinase (P42336 whole entry H1047R): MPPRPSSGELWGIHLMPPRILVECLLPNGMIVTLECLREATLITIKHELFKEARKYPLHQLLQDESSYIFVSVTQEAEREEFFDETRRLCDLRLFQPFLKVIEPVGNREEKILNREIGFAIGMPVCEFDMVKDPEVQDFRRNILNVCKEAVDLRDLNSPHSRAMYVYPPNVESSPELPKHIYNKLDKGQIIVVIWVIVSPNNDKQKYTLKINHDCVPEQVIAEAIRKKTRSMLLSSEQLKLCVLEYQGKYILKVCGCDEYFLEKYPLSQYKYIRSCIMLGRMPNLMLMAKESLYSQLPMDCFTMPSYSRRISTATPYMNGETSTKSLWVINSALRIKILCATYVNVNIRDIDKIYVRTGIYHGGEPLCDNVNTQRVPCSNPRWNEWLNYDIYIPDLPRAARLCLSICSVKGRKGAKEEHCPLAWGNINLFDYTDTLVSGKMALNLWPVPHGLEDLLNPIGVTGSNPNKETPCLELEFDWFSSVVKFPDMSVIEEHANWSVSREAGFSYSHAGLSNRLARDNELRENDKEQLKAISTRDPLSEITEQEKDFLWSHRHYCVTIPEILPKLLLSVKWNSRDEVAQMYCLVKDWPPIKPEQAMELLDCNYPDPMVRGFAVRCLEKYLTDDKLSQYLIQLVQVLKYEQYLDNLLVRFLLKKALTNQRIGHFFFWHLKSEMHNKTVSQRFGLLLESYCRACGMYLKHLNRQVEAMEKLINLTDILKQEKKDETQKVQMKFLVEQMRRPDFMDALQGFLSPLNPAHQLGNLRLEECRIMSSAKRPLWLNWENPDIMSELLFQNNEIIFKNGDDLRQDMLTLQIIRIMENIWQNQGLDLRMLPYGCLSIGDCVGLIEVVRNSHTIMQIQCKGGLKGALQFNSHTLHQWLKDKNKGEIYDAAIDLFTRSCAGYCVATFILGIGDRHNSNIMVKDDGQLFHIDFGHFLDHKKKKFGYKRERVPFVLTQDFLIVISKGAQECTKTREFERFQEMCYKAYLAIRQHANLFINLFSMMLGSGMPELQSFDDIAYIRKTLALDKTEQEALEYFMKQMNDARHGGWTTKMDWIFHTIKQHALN
Chain of PI3Kα (p110[H1047R]/p85) kinase (P27986 whole entry partner): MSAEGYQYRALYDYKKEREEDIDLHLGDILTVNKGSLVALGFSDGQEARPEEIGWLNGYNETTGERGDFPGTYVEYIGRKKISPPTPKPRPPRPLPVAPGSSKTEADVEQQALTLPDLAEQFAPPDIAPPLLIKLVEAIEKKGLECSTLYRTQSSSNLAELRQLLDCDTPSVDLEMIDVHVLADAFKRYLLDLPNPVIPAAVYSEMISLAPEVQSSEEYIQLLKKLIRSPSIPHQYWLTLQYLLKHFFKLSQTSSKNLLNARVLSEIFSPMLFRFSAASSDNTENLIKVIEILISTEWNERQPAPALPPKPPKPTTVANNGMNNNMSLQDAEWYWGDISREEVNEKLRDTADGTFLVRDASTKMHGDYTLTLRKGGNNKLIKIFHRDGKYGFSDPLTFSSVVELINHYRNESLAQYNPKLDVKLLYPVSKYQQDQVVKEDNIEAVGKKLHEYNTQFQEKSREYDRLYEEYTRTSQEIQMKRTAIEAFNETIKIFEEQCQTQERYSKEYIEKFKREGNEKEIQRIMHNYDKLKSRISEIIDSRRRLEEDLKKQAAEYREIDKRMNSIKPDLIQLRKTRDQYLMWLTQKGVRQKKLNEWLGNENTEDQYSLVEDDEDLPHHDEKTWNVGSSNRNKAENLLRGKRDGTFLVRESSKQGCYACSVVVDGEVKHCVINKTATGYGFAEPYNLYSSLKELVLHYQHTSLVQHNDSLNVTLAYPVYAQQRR
Chain of PI3Kα (p110/p85) kinase (wild type, "WT") (P42336 whole entry): as the sequence (P42336 whole entry H1047R) above, with R1047H counted along it
Chain of PI3Kα (p110/p85) kinase (wild type, "WT") (P27986 whole entry partner): as the sequence (P27986 whole entry partner) above

In the case of `Cc1cc(C(C)Nc2ccccc2C(=O)O)c2cc(-c3ccc(C#N)cc3)n(C)c(=O)c2c1` (centres unmarked) [Example 4, 2-((1-(3-(4-cyanophenyl)-2,7-dimethyl-1-oxo-1,2-dihydroisoquinolin-5-yl)ethyl)amino)benzoic acid], the results for the pIC50 in assay [1], in assay [2] and in assay [3] were 5.41, 6.35 and 6.95, respectively. Also, in assay [2], the “selectivity: WT/H1047R” value is reported as 8.7. Besides, the “Selectivity: SK-BR-3/T-47D (cell proliferation)” value in assay [3] was more than 89.

With `Cc1cc(C(C)Nc2ccccc2C(=O)O)c2cc(-c3cnn(C)c3)n(C)c(=O)c2c1` (centres unmarked) [Example 91, 2-((1-(2,7-dimethyl-3-(1-methyl-1H-pyrazol-4-yl)-1-oxo-1,2-dihydroisoquinolin-5-yl)ethyl)amino)benzoic acid], the negative-log IC50 (pIC50) – broadly, −log10 of the IC50, conventionally taken in molar units – in assay [1] is 5.01. Moreover, in assay [2], the pIC50 is 6.62 and the “selectivity: WT/H1047R” value came to 40.9. Moreover, in assay [3], the negative-log IC50 (pIC50) was 6.54 and the “Selectivity: SK-BR-3/T-47D (cell proliferation)” value is recorded as more than 35.

In the case of `Cc1cc(C(C)Nc2sc3ccccc3c2C(=O)O)c2cc(-c3ccccc3)n(C)c(=O)c2c1` (centres unmarked) [Example 92, 2-((1-(2,7-dimethyl-1-oxo-3-phenyl-1,2-dihydroisoquinolin-5-yl)ethyl)amino)benzo[b]thiophene-3-carboxylic acid], the negative-log IC50 (pIC50) in assay [1] is less than 4.00; in assay [2], 6.05; in assay [3] it was less than 5.00. The “selectivity: WT/H1047R” value in assay [2] is more than 113.

The values are drawn from US20260125346A1, “Isoquinolinone Derivatives and 4H-Quinolizinone Derivatives and Pharmaceutical Compositions Thereof for the Treatment of Disease” (BeOne Medicines I GmbH, priority 2023, published 2026).
